Measurements reported in patent publication US9096593B2, “Compounds and methods for kinase modulation, and indications therefor” (Plexxikon Inc., priority 2009, dated 2015).
Like-named read-outs stand apart in the source and are kept apart here.

Tests used:
[1] = target: Fms kinase (Homo sapiens (Human), UniProt P07333); experiment: Fms kinase biochemical activity assay (AlphaScreen, biotin-(E4Y)10 phosphorylation)
How it was run: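 Recombinant human Fms phosphorylating 30 nM biotin-(E4Y)10 with 100 μM ATP (1 ng/well enzyme) in Hepes pH 7.5 buffer with Mg2+/Mn2+, 5% DMSO, 20 min at 30 °C. Phosphotyrosine detected by AlphaScreen streptavidin donor/PY20 acceptor beads; IC50 from signal versus compound concentration.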

[2] = target: c-Kit kinase (Homo sapiens (Human), UniProt P10721); experiment: c-Kit kinase biochemical activity assay (AlphaScreen, biotin-(E4Y)10 phosphorylation)
Sequence of c-Kit kinase (P10721 26-976): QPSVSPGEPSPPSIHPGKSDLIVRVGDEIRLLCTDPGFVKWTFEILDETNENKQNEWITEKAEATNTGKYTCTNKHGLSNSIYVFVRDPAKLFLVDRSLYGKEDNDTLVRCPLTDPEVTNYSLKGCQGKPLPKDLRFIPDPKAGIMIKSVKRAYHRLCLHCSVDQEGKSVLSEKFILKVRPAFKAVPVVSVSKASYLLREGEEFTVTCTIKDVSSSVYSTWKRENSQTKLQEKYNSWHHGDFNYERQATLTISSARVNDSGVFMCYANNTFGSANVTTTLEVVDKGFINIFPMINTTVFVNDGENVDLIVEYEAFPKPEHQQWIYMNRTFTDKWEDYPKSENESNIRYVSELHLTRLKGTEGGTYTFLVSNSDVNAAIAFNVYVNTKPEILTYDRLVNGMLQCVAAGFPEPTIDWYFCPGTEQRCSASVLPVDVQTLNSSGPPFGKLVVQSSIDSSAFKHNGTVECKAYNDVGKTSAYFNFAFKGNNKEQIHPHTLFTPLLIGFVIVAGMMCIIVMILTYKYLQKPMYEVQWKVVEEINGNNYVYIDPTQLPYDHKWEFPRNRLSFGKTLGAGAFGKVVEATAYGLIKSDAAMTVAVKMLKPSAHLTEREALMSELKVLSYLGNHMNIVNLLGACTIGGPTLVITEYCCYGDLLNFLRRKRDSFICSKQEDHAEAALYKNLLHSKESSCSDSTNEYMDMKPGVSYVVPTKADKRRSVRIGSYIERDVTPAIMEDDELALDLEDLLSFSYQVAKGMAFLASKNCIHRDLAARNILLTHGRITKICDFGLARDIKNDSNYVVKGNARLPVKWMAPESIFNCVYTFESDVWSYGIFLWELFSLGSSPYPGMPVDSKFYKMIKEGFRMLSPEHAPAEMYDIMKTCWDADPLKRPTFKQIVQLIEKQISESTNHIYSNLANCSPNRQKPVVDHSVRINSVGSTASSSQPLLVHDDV

[3] = target: BCR-FMS/BaF3 cells (Homo sapiens, UniProt P07333); experiment: BCR-FMS/BaF3 cell proliferation assay (ATPlite); assay type: cell-based
Sequence of BCR-FMS/BaF3 cells (P07333 20-972 limits assumed, change not shown): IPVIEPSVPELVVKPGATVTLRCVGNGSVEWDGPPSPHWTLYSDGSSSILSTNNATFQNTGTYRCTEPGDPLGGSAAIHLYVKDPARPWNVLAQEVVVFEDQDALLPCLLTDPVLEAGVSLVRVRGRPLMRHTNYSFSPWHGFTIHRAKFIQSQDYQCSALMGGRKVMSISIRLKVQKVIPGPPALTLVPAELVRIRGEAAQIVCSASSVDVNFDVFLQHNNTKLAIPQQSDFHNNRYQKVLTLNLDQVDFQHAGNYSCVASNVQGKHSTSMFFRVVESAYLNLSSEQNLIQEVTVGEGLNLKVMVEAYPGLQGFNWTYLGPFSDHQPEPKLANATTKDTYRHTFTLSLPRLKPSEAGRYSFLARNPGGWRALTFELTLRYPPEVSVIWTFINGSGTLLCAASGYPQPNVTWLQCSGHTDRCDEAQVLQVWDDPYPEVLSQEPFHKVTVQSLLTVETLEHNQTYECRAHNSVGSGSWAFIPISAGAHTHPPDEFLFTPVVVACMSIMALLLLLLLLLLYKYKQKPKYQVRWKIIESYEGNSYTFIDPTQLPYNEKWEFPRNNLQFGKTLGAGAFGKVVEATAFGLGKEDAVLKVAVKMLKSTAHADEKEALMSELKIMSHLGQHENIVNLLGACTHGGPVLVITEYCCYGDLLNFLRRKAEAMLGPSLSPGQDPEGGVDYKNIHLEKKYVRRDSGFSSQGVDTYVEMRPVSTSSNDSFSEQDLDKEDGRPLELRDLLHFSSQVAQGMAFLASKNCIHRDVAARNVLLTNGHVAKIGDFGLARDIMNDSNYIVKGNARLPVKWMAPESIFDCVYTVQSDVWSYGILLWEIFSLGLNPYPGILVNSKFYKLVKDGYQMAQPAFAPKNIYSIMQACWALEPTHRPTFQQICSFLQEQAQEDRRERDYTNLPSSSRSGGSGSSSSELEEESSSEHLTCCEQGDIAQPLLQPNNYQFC
How it was run: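 BCR-FMS/BaF3 cells at 2×10^5 cells/mL in growth media with 1 mg/mL G418, without WEHI/IL-3, treated with 8-point 1:3 compound titrations (top 10 μM final) for 3 days at 37 °C, 5% CO2. Cell number by ATPlite luminescence; IC50 from signal versus concentration.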

[4] = read-out: Biochemical activity (IC50 μM) Fms
[5] = Kit IC50/Fms IC50, BCR-KIT/BaF3 vs BCR-FMS/BaF3 cells
[6] = read-out: BCR/BaF3 (IC50 μM) Fms; BCR-FMS/BaF3 cells
[7] = BCR-FMS/BaF3 cells; read-out: BCR/BaF3 (IC50 μM) Fms

Sequence of Fms kinase (P07333 20-972): as the sequence (P07333 20-972 limits assumed, change not shown) above

## Cc1cnc2[nH]cc(Cc3cnc(NCc4cccc(N5CCCC5)n4)nc3)c2c1 [Compound P-2082, [5-(5-Methyl-1H-pyrrolo[2,3-b]pyridin-3-ylmethyl)-pyrimidin-2-yl]-(6-pyrrolidin-1-yl-pyridin-2-ylmethyl)-amine]
[1]
  Biochemical activity selectivity (Kit IC50/Fms IC50): <20
[1]; [4]
  IC50: < 0.1 µM
[2]
  IC50: < 0.1 µM
[3]; [5]
  BCR/BaF3 selectivity (Kit IC50/Fms IC50): <20
[3]; [6]
  IC50: < 0.1 µM

## Cc1cnc2[nH]cc(Cc3ccc(NCc4ccc(Cl)nc4)nc3F)c2c1 [Compound P-2088, (6-Chloro-pyridin-3-ylmethyl)-[6-fluoro-5-(5-methyl-1H-pyrrolo[2,3-b]pyridin-3-ylmethyl)-pyridin-2-yl]-amine]
[1]
  Biochemical activity selectivity (Kit IC50/Fms IC50): >20
[1]; [4]
  IC50: < 0.1 µM
[2]
  IC50: > 0.1 µM
[3]; [5]
  BCR/BaF3 selectivity (Kit IC50/Fms IC50): >20
[3]; [6]
  IC50: < 0.1 µM

## COc1ccc(CNc2ccc(Cc3c[nH]c4ncc(C)cc34)c(F)n2)c(OC)n1 [Compound P-2097, (2,6-Dimethoxy-pyridin-3-ylmethyl)-[6-fluoro-5-(5-methyl-1H-pyrrolo[2,3-b]pyridin-3-ylmethyl)-pyridin-2-yl]-amine]
[1]
  Biochemical activity selectivity (Kit IC50/Fms IC50): >20
[1]; [4]
  IC50: < 0.1 µM
[2]
  IC50: > 0.1 µM
[3]; [5]
  BCR/BaF3 selectivity (Kit IC50/Fms IC50): >20
[3]; [6]
  IC50: < 0.1 µM

## Cc1cnc2[nH]cc(Cc3ccc(NCc4cccnc4F)nc3F)c2c1 [Compound P-2103, [6-Fluoro-5-(5-methyl-1H-pyrrolo[2,3-b]pyridin-3-ylmethyl)-pyridin-2-yl]-(2-fluoro-pyridin-3-ylmethyl)-amine]
[1]
  Biochemical activity selectivity (Kit IC50/Fms IC50): >20
[1]; [4]
  IC50: < 0.1 µM
[2]
  IC50: > 0.1 µM
[3]; [5]
  BCR/BaF3 selectivity (Kit IC50/Fms IC50): <20
[3]; [6]
  IC50: < 0.1 µM

## Cc1cnc2[nH]cc(Cc3ccc(NCc4ccnc(F)c4)nc3F)c2c1 [Compound P-2118, [6-Fluoro-5-(5-methyl-1H-pyrrolo[2,3-b]pyridin-3-ylmethyl)-pyridin-2-yl]-(2-fluoro-pyridin-4-ylmethyl)-amine]
[1]
  Biochemical activity selectivity (Kit IC50/Fms IC50): >20
[1]; [4]
  IC50: < 0.1 µM
[2]
  IC50: > 0.1 µM
[3]; [5]
  BCR/BaF3 selectivity (Kit IC50/Fms IC50): >20
[3]; [6]
  IC50: < 0.1 µM

## Cc1ccc(CNc2ccc(Cc3c[nH]c4ncc(C)cc34)c(F)n2)nc1 [Compound P-2131, [6-Fluoro-5-(5-methyl-1H-pyrrolo[2,3-b]pyridin-3-ylmethyl)-pyridin-2-yl]-(5-methyl-pyridin-2-ylmethyl)-amine]
[1]
  Biochemical activity selectivity (Kit IC50/Fms IC50): >20
[1]; [4]
  IC50: < 0.1 µM
[2]
  IC50: > 0.1 µM
[3]; [7]
  IC50: < 0.1 µM
[3]; [5]
  BCR/BaF3 selectivity (Kit IC50/Fms IC50): <20

## COc1ncccc1CNc1ncc(Cc2c[nH]c3ncc(C)cc23)cn1 [Compound P-2139, (2-Methoxy-pyridin-3-ylmethyl)-[5-(5-methyl-1H-pyrrolo[2,3-b]pyridin-3-ylmethyl)-pyrimidin-2-yl]-amine]
[1]
  Biochemical activity selectivity (Kit IC50/Fms IC50): >20
[1]; [4]
  IC50: < 0.1 µM
[2]
  IC50: > 0.1 µM
[3]; [5]
  BCR/BaF3 selectivity (Kit IC50/Fms IC50): <20
[3]; [6]
  IC50: > 0.1 µM

## Cc1cnc2[nH]cc(Cc3cnc(NCc4ccc(C(F)(F)F)nc4)c(F)c3)c2c1 [Compound P-2146, [3-Fluoro-5-(5-methyl-1H-pyrrolo[2,3-b]pyridin-3-ylmethyl)-pyridin-2-yl]-(6-trifluoromethyl-pyridin-3-ylmethyl)-amine]
[1]
  Biochemical activity selectivity (Kit IC50/Fms IC50): <20
[1]; [4]
  IC50: < 0.1 µM
[2]
  IC50: < 0.1 µM
[3]; [5]
  BCR/BaF3 selectivity (Kit IC50/Fms IC50): <20
[3]; [6]
  IC50: < 0.1 µM

## COc1cnc2[nH]cc(Cc3cnc(NCc4ccc(C(F)(F)F)nc4)c(F)c3)c2c1 [Compound P-2147, [3-Fluoro-5-(5-methoxy-1H-pyrrolo[2,3-b]pyridin-3-ylmethyl)-pyridin-2-yl]-(6-trifluoromethyl-pyridin-3-ylmethyl)-amine]
[1]
  Biochemical activity selectivity (Kit IC50/Fms IC50): <20
[1]; [4]
  IC50: < 0.1 µM
[2]
  IC50: < 0.1 µM
[3]; [5]
  BCR/BaF3 selectivity (Kit IC50/Fms IC50): <20
[3]; [6]
  IC50: < 0.1 µM

## Cc1cnc2[nH]cc(Cc3cnc(NCc4cccnc4OC4CCCC4)nc3)c2c1 [Compound P-2148, (2-Cyclopentyloxy-pyridin-3-ylmethyl)-[5-(5-methyl-1H-pyrrolo[2,3-b]pyridin-3-ylmethyl)-pyrimidin-2-yl]-amine]
[1]
  Biochemical activity selectivity (Kit IC50/Fms IC50): <20
[1]; [4]
  IC50: < 0.1 µM
[2]
  IC50: > 0.1 µM
[3]; [7]
  IC50: < 0.1 µM
[3]; [5]
  BCR/BaF3 selectivity (Kit IC50/Fms IC50): <20

## COc1ccc(CNc2ncc(Cc3c[nH]c4ncc(Cl)cc34)s2)cn1 [Compound P-2154, [5-(5-Chloro-1H-pyrrolo[2,3-b]pyridin-3-ylmethyl)-thiazol-2-yl]-(6-methoxy-pyridin-3-ylmethyl)-amine]
[1]
  Biochemical activity selectivity (Kit IC50/Fms IC50): <20
[1]; [4]
  IC50: < 0.1 µM
[2]
  IC50: < 0.1 µM
[3]; [7]
  IC50: < 0.1 µM
[3]; [5]
  BCR/BaF3 selectivity (Kit IC50/Fms IC50): <20

## Cn1cc(F)cc(CNc2ncc(Cc3c[nH]c4ncc(Cl)cc34)cn2)c1=O [Compound P-2157, 3-{[5-(5-Chloro-1H-pyrrolo[2,3-b]pyridin-3-ylmethyl)-pyrimidin-2-ylamino]-methyl}-5-fluoro-1-methyl-1H-pyridin-2-one]
[1]
  Biochemical activity selectivity (Kit IC50/Fms IC50): <20
[1]; [4]
  IC50: > 0.1 µM
[2]
  IC50: > 0.1 µM
[3]; [5]
  BCR/BaF3 selectivity (Kit IC50/Fms IC50): >20
[3]; [6]
  IC50: < 0.1 µM

## COc1cccc(CNc2ncc(Cc3c[nH]c4ncc(Cl)cc34)s2)n1 [Compound P-2163, [5-(5-Chloro-1H-pyrrolo[2,3-b]pyridin-3-ylmethyl)-thiazol-2-yl]-(6-methoxy-pyridin-2-ylmethyl)-amine]
[1]
  Biochemical activity selectivity (Kit IC50/Fms IC50): <20
[1]; [4]
  IC50: < 0.1 µM
[2]
  IC50: > 0.1 µM
[3]; [7]
  IC50: < 0.1 µM
[3]; [5]
  BCR/BaF3 selectivity (Kit IC50/Fms IC50): <20

## COc1ncc(CNc2ccc(Cc3c[nH]c4ncc(Cl)cc34)c(F)n2)cc1F [Compound P-2165, [5-(5-Chloro-1H-pyrrolo[2,3-b]pyridin-3-ylmethyl)-6-fluoro-pyridin-2-yl]-(5-fluoro-6-methoxy-pyridin-3-ylmethyl)-amine]
[1]; 100 μM ATP, read-out: Biochemical (IC50 μM) Fms
  IC50: < 0.1 µM
[1]
  Biochemical activity selectivity (Kit IC50/Fms IC50): >20
[1]; [4]
  IC50: < 0.1 µM
[2]
  IC50: > 0.1 µM
[3]; [5]
  BCR/BaF3 selectivity (Kit IC50/Fms IC50): >20
[3]; [6]
  IC50: < 0.1 µM
[3]; read-out: Cell based (IC50 μM) BCR/BaF3 (Fms); BCR-FMS/BaF3 cells, 3 days
  IC50: < 0.1 µM

## Fc1cc(Cc2c[nH]c3ncc(Cl)cc23)cnc1NCc1ccc(C(F)(F)F)nc1 [Compound P-2172, [5-(5-Chloro-1H-pyrrolo[2,3-b]pyridin-3-ylmethyl)-3-fluoro-pyridin-2-yl]-(6-trifluoromethyl-pyridin-3-ylmethyl)-amine]
[1]
  Biochemical activity selectivity (Kit IC50/Fms IC50): <20
[1]; [4]
  IC50: < 0.1 µM
[2]
  IC50: < 0.1 µM
[3]; [7]
  IC50: < 0.1 µM
[3]; [5]
  BCR/BaF3 selectivity (Kit IC50/Fms IC50): <20

## Fc1cncc(CNc2ncc(Cc3c[nH]c4ncc(Cl)cc34)cn2)c1 [Compound P-2176, [5-(5-Chloro-1H-pyrrolo[2,3-b]pyridin-3-ylmethyl)-pyrimidin-2-yl]-(5-fluoro-pyridin-3-ylmethyl)-amine]
[1]
  Biochemical activity selectivity (Kit IC50/Fms IC50): >20
[1]; [4]
  IC50: < 0.1 µM
[2]
  IC50: > 0.1 µM
[3]; [5]
  BCR/BaF3 selectivity (Kit IC50/Fms IC50): >20
[3]; [6]
  IC50: < 0.1 µM

## CCS(=O)(=O)Nc1ccccc1CNc1ccc(Cc2c[nH]c3ncc(C)cc23)c(F)n1 [Compound P-2198, Ethanesulfonic acid (2-{[6-fluoro-5-(5-methyl-1H-pyrrolo[2,3-b]pyridin-3-ylmethyl)-pyridin-2-ylamino]-methyl}-phenyl)-amide]
[1]
  Biochemical activity selectivity (Kit IC50/Fms IC50): <20
[1]; [4]
  IC50: < 0.1 µM
[2]
  IC50: > 0.1 µM
[3]; [5]
  BCR/BaF3 selectivity (Kit IC50/Fms IC50): <20
[3]; [6]
  IC50: < 0.1 µM

## CCS(=O)(=O)Nc1cc(F)cc(CNc2ccc(Cc3c[nH]c4ncc(C)cc34)c(F)n2)c1 [Compound P-2202, Ethanesulfonic acid (3-fluoro-5-{[6-fluoro-5-(5-methyl-1H-pyrrolo[2,3-b]pyridin-3-ylmethyl)-pyridin-2-ylamino]-methyl}-phenyl)-amide]
[1]
  Biochemical activity selectivity (Kit IC50/Fms IC50): <20
[1]; [4]
  IC50: < 0.1 µM
[2]
  IC50: > 0.1 µM
[3]; [7]
  IC50: < 0.1 µM
[3]; [5]
  BCR/BaF3 selectivity (Kit IC50/Fms IC50): <20
